From patent publication US9315494B2, “Alkyl-amide-substituted pyridyl compounds useful as modulators of IL-12, IL-23 and/or IFNα responses” (Bristol-Myers Squibb Company, priority 2012, dated 2016) come the findings set out here.

Each structure is given as a SMILES string.

Test [1] concerns the target T1, recombinantly expressed His-tagged protein corresponding to amino acids 575-869 of human Tyk2 (Homo sapiens, UniProt P29597).
T1 construct: corresponding to amino acids 575-869 of human Tyk2; made in house
Put plainly: Probe displacement assay (scintillation proximity, [3H] probe). The settings on record: 2.5 nM Tyk2 (575-869), 40 nM radiolabeled probe, 30 minutes at room temperature. Type of test: binding. How it is done:
The probe displacement assay is conducted as follows: In a […], test compounds along with recombinantly expressed His-tagged protein corresponding to amino acids 575-869 of human Tyk2 (sequence shown below) at 2.5 nM, 40 nM ((R)-N-(1-(3-(8-methyl-5-(methylamino)-8H-imidazo[4,5-d]thiazolo[5,4-b]pyridin-2-yl)phenyl)ethyl)-2-([^3H]methylsulfonyl)benzamide) (preparation described below) and 80 μg/mL Copper His-Tag scintillation proximity assay beads (Perkin Elmer, Catalog #RPNQ0095) in 50 mM HEPES, pH 7.5, containing 100 μg/mL bovine serum albumin and 5% DMSO were incubated for 30 minutes at room temperature. The amount of radiolabeled probe (preparation described below) bound to Tyk2 was then quantified by scintillation counting, and the inhibition by the test compound calculated by comparison to wells either with no inhibitor (0% inhibition) or without Tyk2 (100% inhibition).
Protein Sequence of recombinant Hig-tagged Tyk2 (575-869):
The preparation of radiolabeled probe, (R)-N-(1-(3-(8-methyl-5-(methylamino)-8H-imidazo[4,5-d]thiazolo[5,4-b]pyridin-2-yl)phenyl)ethyl)-2-([^3H]methylsulfonyl)benzamide, was performed as described below: […]

Test [2] deals with IL-23-stimulated STAT-dependent luciferase reporter in Kit225 T cells. Put plainly: Kit225 T cell assay, IL-23 stimulated STAT-dependent luciferase reporter. The class given is cell-based, human. The settings on record: Kit225 T cells, 20 ng/mL human recombinant IL-23, 5-6 hours, luciferase; read-out: IL23 (Kit225 T Cell Inhibition Data). The essentials: (§1)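 Kit225 T cells carrying a stably integrated STAT-luciferase reporter, in RPMI with 10% heat-inactivated FBS, were stimulated with 20 ng/mL IL-23 or 200 U/mL IFNα for 5-6 h. Readout was luminescence from the luciferase reporter.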
(In general: In a reporter assay the amount or activity of a reporter protein is the signal.)

Test [3] concerns IFNα-stimulated STAT-dependent luciferase reporter in Kit225 T cells. Put plainly: Kit225 T cell assay, IFNα stimulated STAT-dependent luciferase reporter. The class given is cell-based, human. The settings on record: Kit225 T cells, 200 U/mL human recombinant IFNα, 5-6 hours, luciferase; read-out: IFNα (Kit225 T Cell Inhibition Data). In a few lines:
as §1

T1 sequence (P29597 575-869): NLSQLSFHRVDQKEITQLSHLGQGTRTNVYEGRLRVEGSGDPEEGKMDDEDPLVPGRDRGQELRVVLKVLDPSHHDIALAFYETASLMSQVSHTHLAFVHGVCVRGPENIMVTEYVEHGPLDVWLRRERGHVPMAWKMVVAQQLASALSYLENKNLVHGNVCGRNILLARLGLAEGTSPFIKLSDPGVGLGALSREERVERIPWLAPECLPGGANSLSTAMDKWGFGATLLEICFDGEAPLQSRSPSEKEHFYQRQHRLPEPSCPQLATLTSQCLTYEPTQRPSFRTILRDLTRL

A word on the EC50: it is the concentration that produces a half-maximal response. For `CNC(=O)c1cnc(Nc2ccc(O)cn2)cc1Nc1ccccc1C(N)=O` [Example 81], the EC50 in test [1] came out at 0.0227 µM. Moreover, the figures for the IC50 in test [2] and in test [3] were 5.58 µM and 4.49 µM, respectively.
The corresponding values for `CNC(=O)c1cnc(Nc2ccc(S(C)(=O)=O)cn2)cc1Nc1ccccc1S(C)(=O)=O` [Example 61] are 0.0164 µM, 3.53 µM and 1.03 µM.
The corresponding values for `CNC(=O)c1cnc(Nc2ccc(F)cn2)cc1Nc1ccc(C(=O)NCCO)cc1OC` [Example 238] are 0.0063 µM, 4.25 µM and 2.36 µM.
Regarding `CNC(=O)c1cnc(Nc2cc(C)c(F)cn2)cc1Nc1cccc(C(=O)NCc2ccccn2)c1OC` [Example 327], the EC50 in test [1] came out at 0.0153 µM. The values for the IC50 in test [2] and in test [3] were 0.1 µM and 0.01 µM, respectively.
For the compound `CNC(=O)c1cnc(Nc2cc(C)c(F)cn2)cc1Nc1cccc(-c2cnn(C)c2)c1OC` [Example 396], the EC50 in test [1] worked out at 0.0065 µM. For the same compound, the figures for the IC50 in test [2] and in test [3] were 0.11 µM and 0.06 µM, respectively.
For the compound `CNC(=O)c1cnc(Nc2ccc(C#N)c(C)n2)cc1Nc1ccc(F)cc1OC` [Example 152], the EC50 in test [1] was found to be 0.0406 µM. For the same compound, the IC50 in test [2] came to 0.499 µM; in test [3], 0.37 µM.
On to `CNC(=O)c1cnc(Nc2ccc(F)cn2)cc1Nc1ccc(N2CCOCC2)cc1` [Example 211], for which the EC50 in test [1] amounted to 0.246 µM. For the same compound, the IC50 is 4.27 µM in test [2] and 3.15 µM in test [3].
Turning to `CNC(=O)c1cnc(Nc2cccc(OC)n2)cc1Nc1ccccc1C(N)=O` [Example 73], the EC50 in test [1] was 0.012 µM. In addition, the IC50 is 0.506 µM in test [2] and 0.29 µM in test [3].
Turning to `CNC(=O)c1cnc(Nc2cc(Cl)ccn2)cc1Nc1cc(F)cc(F)c1OC` [Example 144], the EC50 in test [1] was found to be 0.0461 µM. Also, the IC50 turned out to be 0.517 µM in test [2] and 0.23 µM in test [3].
Consider `CNC(=O)c1cnc(Nc2cc(C)c(F)cn2)cc1Nc1cccc(C(=O)NCc2nccs2)c1OC` [Example 345], for which, in test [1], the EC50 came to 0.0105 µM. Further, the IC50 in test [2] and in test [3] was 0.03 µM throughout.
Regarding `[2H]C([2H])([2H])NC(=O)c1cnc(Nc2ccc(F)cn2)cc1Nc1ccccc1S(C)(=O)=O` [Example 298], the EC50 in test [1] worked out at 0.0065 µM. For the same compound, the IC50 amounted to 0.11 µM in test [2] and 0.06 µM in test [3].
In the case of `CNC(=O)c1cnc(Nc2ccc3ccccc3n2)cc1Nc1ccccc1C(N)=O` [Example 87], the EC50 in test [1] stood at 0.0038 µM. Also, the IC50 in test [2] was 0.257 µM; in test [3] it was 0.16 µM.
`CNC(=O)c1cnc(Nc2ccc(N3CCOCC3)cn2)cc1Nc1ccccc1C` [Example 217]: the EC50 in test [1] stood at 0.291 µM. In addition, the IC50 in test [2] came out at 3.31 µM; in test [3], 1.48 µM.
With `[2H]C([2H])([2H])NC(=O)c1cnc(Nc2cc(C)c(C#N)c(C)n2)cc1Nc1ccccc1S(C)(=O)=O` [Example 438], the EC50 in test [1] was determined as 0.0115 µM. The IC50 in test [2] stood at 0.15 µM; in test [3] it was 0.08 µM.
The corresponding values for `CNC(=O)c1cnc(Nc2cc(C)nc(C)n2)cc1Nc1cccc(-c2ccn(C)n2)c1OC` [Example 393] are 0.0035 µM, 0.00583 µM and 0.00286 µM.
The corresponding values for `CNC(=O)c1cnc(Nc2cc(C)c(F)cn2)cc1Nc1cccc(-c2nc[nH]n2)c1OC(F)F` [Example 387] are 0.0046 µM, 0.28 µM and 0.12 µM.
On to `CNC(=O)c1ccc(Nc2cc(Nc3ccc(F)cn3)ncc2C(=O)NC)c(OC)c1` [Example 237], for which the EC50 in test [1] worked out at 0.0291 µM. Also, the IC50 in test [2] is 0.47 µM; in test [3] it was 0.46 µM.
The corresponding values for `CNC(=O)c1cnc(Nc2ccc3ccccc3n2)cc1NC1CCCC1C(N)=O` (stereo not drawn) [Example 289] are 0.495 µM, 12.5 µM and 7.3 µM.
For `CNC(=O)c1cnc(Nc2ccc(CO)cn2)cc1Nc1ccccc1C(N)=O` [Example 79], the EC50 in test [1] was 0.0055 µM. Besides, the IC50 in test [2] worked out at 4.1 µM; in test [3], 1.85 µM.
The corresponding values for `CNC(=O)c1cnc(Nc2ccc(F)cn2)cc1Nc1ccccc1[S+](C)[O-]` (stereo not drawn) [Example 62] are 0.0845 µM, 0.898 µM and 1.29 µM.
The corresponding values for `CNC(=O)c1cnc(Nc2cc(C)c(F)cn2)cc1Nc1cccc(-c2ccn(C)n2)c1OC` [Example 391] are 0.006 µM, 0.00966 µM and 0.01 µM.
The corresponding values for `[2H]C([2H])([2H])NC(=O)c1cnc(Nc2ccc(C)nn2)cc1Nc1cccc(-c2csc(C)n2)c1OC` [Example 448] are 0.008 µM, 0.011 µM and 0.017 µM.
Take `CNC(=O)c1cnc(Nc2cccc(-n3ccccc3=O)n2)cc1Nc1ccc(F)cc1OC` [Example 165]: the EC50 in test [1] was 0.779 µM. Further, the IC50 in test [2] came to 10.7 µM; in test [3], 6.65 µM.
The corresponding values for `CNC(=O)c1cnc(Nc2ccc(F)cn2)cc1Nc1ccc(-c2ccccc2)cc1` [Example 194] are 0.349 µM, 3.22 µM and 8.66 µM.
On to `CNC(=O)c1cnc(Nc2ccc(Cl)cn2)cc1Nc1ccccc1C(N)=O` [Example 80], for which the EC50 in test [1] came to 0.0044 µM. The IC50 in test [2] amounted to 0.32 µM; in test [3], 0.46 µM.
For the compound `CNC(=O)c1cnc(Nc2cc(C#N)ccn2)cc1Nc1cc(F)cc(F)c1OC` [Example 134], the concentration for a half-maximal effect (EC50) in test [1] amounted to 0.0099 µM. Further, the IC50 in test [2] is 0.314 µM; in test [3] it was 0.13 µM.
The corresponding values for `CCc1cccc(Nc2cc(Nc3ccc(Cl)cc3OC)c(C(=O)NC)cn2)n1` [Example 125] are 0.436 µM, 9.68 µM and 9.97 µM.
The corresponding values for `CNC(=O)c1cnc(Nc2ccc(C(=O)NC3CC3)cn2)cc1Nc1ccc(Cl)cc1OC` [Example 261] are 0.155 µM, 2.18 µM and 1.37 µM.
As for `CNC(=O)c1cnc(Nc2ccc(F)cn2)cc1Nc1ccccc1CCO` [Example 66], in test [1], the EC50 is 0.0148 µM. Moreover, the IC50 in test [2] amounted to 1.77 µM; in test [3], 3.17 µM.
On to `CNC(=O)c1cnc(Nc2ccc(F)cn2)cc1Nc1cccc2ccccc12` [Example 188], for which, in test [1], the EC50 amounted to 0.557 µM. Further, the results for the IC50 in test [2] and in test [3] were 4.3 µM and 6.47 µM, respectively.
`CCC(CC)CNC(=O)c1cccc(Nc2cc(Nc3cc(C)c(F)cn3)ncc2C(=O)NC)c1OC` [Example 334]: in test [1], the EC50 was determined as 0.014 µM. The IC50 was found to be 0.31 µM in test [2] and 0.23 µM in test [3].
For `CNC(=O)c1cnc(Nc2cc(C)c(F)cn2)cc1Nc1cccc(-c2nnco2)c1OC` [Example 358], the EC50 in test [1] was found to be 0.0053 µM. Further, the figures for the IC50 in test [2] and in test [3] were 0.00998 µM and 0.01 µM, respectively.
`CNC(=O)c1cnc(Nc2ccc3ccccc3n2)cc1N[C@@H]1CCCC[C@@H]1C(N)=O` [Example 286]: the EC50 in test [1] stood at 0.106 µM. Moreover, the IC50 in test [2] was 4.22 µM; in test [3], 1.98 µM.
On to `CNC(=O)c1cnc(Nc2ccc3ccccc3n2)cc1Nc1ccccc1S(C)(=O)=O` [Example 2], for which the EC50 in test [1] worked out at 0.0132 µM. Also, the values for the IC50 in test [2] and in test [3] were 0.0574 µM and 0.03 µM, respectively.
With `CNC(=O)c1cnc(Nc2ccc(N3CCOCC3)cn2)cc1Nc1ccccc1SC` [Example 226], in test [1], the EC50 came to 0.0201 µM. The IC50 in test [2] was determined as 0.151 µM; in test [3], 0.14 µM.
The corresponding values for `CNC(=O)c1cnc(Nc2cc(C#N)ccn2)cc1Nc1ccc(S(C)(=O)=O)cc1OC` [Example 43] are 0.0687 µM, 0.173 µM and 0.87 µM.
Consider `CNC(=O)c1cnc(Nc2ccc(F)cn2)cc1Nc1cc(F)cc(F)c1OC` [Example 205], for which the EC50 in test [1] amounted to 0.0251 µM. Also, the IC50 in test [2] was 0.372 µM; in test [3] it was 0.18 µM.
In the case of `CNC(=O)c1cnc(Nc2cc(C)n(C)n2)cc1Nc1cccc(-c2nnc[nH]2)c1OC` [Example 363], the EC50 in test [1] is 0.0047 µM. Further, the IC50 in test [2] worked out at 0.07 µM; in test [3] it was 0.04 µM.
`CNC(=O)c1cnc(Nc2ccc(F)cn2)cc1Nc1cccc(C(N)=O)c1OC` [Example 315, 4-((3-carbamoyl-2-methoxyphenyl)amino)-6-((5-fluoropyridin-2-yl)amino)-N-methylnicotinamide]: the EC50 in test [1] is 0.005 µM. In addition, the IC50 in test [2] was 0.09 µM; in test [3], 0.08 µM.
For the compound `CNC(=O)c1cnc(Nc2cc(C)c(F)cn2)cc1Nc1cccc(C(=O)NCC2CCCCC2)c1OC` [Example 325], the EC50 in test [1] was determined as 0.0764 µM. The IC50 is 0.46 µM in test [2] and 0.21 µM in test [3].
